According to ChEMBL document CHEMBL1208676, “Synthesis and in vitro antimycobacterial activity of balofloxacin ethylene isatin derivatives” (Eur J Med Chem, 2010):
≈ marks a conversion by molar mass, not a printed value.

Tests used:
Mycolicibacterium phlei = experiment: Antimycobacterial activity against Mycobacterium phlei CMCC 93201 after 72 hrs by serial double dilution method; type: functional; settings: CMCC 93201, 72 h
[1] = system: Mycobacterium tuberculosis; experiment: Antimycobacterial activity against Mycobacterium tuberculosis 09710 after 72 hrs by serial double dilution method; type: functional; settings: Mycobacterium tuberculosis, 09710, 72 h
[2] = system: Mycobacterium tuberculosis; experiment: Antimycobacterial activity against Mycobacterium tuberculosis H37Rv ATCC 27294 after 72 hrs by serial double dilution method; type: functional; settings: H37Rv ATCC 27294, 72 h
[3] = system: Mycolicibacterium smegmatis; experiment: Antimycobacterial activity against Mycobacterium smegmatis CMCC 93202 after 72 hrs by serial double dilution method; type: functional; settings: CMCC 93202, 72 h
[4] = Cytotoxicity against african green monkey Vero cells after 72 hrs by MTT assay; type: cell-based; settings: chlorocebus sabaeus
[5] = Lipophilicity, log P of the compound; type: physicochemical; settings: octanol/water

SMILES | MIC (Mycolicibacterium phlei) | MIC [1] | MIC [2] | MIC [3] | CC50 at 72 h [4] | logP [5]
COc1c(N2C[C@@H]3CCCN[C@@H]3C2)c(F)cc2c(=O)c(C(=O)O)cn(C3CC3)c12 [MOXIFLOXACIN] | 0.2 µg/mL (≈ 0.498 µM) | < 0.5 µg/mL | 0.25 µg/mL (≈ 0.623 µM) | 0.1 µg/mL (≈ 0.249 µM) |  | 
COc1c(N2CCCC(N(C)CCN3C(=O)/C(=N/O)c4cc(F)ccc43)C2)c(F)cc2c(=O)c(C(=O)O)cn(C3CC3)c12 (centres undefined) | 6.25 µg/mL (≈ 10.5 µM) |  |  | 12.5 µg/mL (≈ 21 µM) | 306 µM | 
CO/N=C1/C(=O)N(CCN(C)C2CCCN(c3c(F)cc4c(=O)c(C(=O)O)cn(C5CC5)c4c3OC)C2)c2ccccc21 (centres undefined) | 3.12 µg/mL (≈ 5.27 µM) |  |  | 6.25 µg/mL (≈ 10.6 µM) | 15 µM | 
COc1c(N2CCCC(N(C)CCN3C(=O)/C(=N\Nc4ccccc4)c4ccccc43)C2)c(F)cc2c(=O)c(C(=O)O)cn(C3CC3)c12 (centres undefined) | 3.12 µg/mL (≈ 4.78 µM) |  |  | 6.25 µg/mL (≈ 9.58 µM) | < 6.1 µM | 
CCO/N=C1/C(=O)N(CCN(C)C2CCCN(c3c(F)cc4c(=O)c(C(=O)O)cn(C5CC5)c4c3OC)C2)c2ccccc21 (centres undefined) | 3.12 µg/mL (≈ 5.15 µM) |  |  | 6.25 µg/mL (≈ 10.3 µM) | 60.5 µM | 0.96
CO/N=C1/C(=O)N(CCN(C)C2CCCN(c3c(F)cc4c(=O)c(C(=O)O)cn(C5CC5)c4c3OC)C2)c2ccc(F)cc21 (centres undefined) | 3.12 µg/mL (≈ 5.12 µM) |  |  | 6.25 µg/mL (≈ 10.3 µM) | 12.8 µM | 
COc1c(N2CCCC(N(C)CCN3C(=O)/C(=N\NC(N)=S)c4cc(F)ccc43)C2)c(F)cc2c(=O)c(C(=O)O)cn(C3CC3)c12 (centres undefined) | 3.12 µg/mL (≈ 4.77 µM) |  |  | 6.25 µg/mL (≈ 9.56 µM) | 313 µM | 1.8
COc1c(N2CCCC(N(C)CCN3C(=O)/C(=N\NC(N)=O)c4cc(F)ccc43)C2)c(F)cc2c(=O)c(C(=O)O)cn(C3CC3)c12 (centres undefined) | 6.25 µg/mL (≈ 9.8 µM) |  |  | 6.25 µg/mL (≈ 9.8 µM) | 57 µM | 
COc1c(N2CCCC(N(C)CCN3C(=O)C(=O)c4ccccc43)C2)c(F)cc2c(=O)c(C(=O)O)cn(C3CC3)c12 (centres undefined) | 25 µg/mL (≈ 44.4 µM) |  |  | 25 µg/mL (≈ 44.4 µM) | 137 µM | 
COc1c(N2CCCC(N(C)CCN3C(=O)/C(=N\Nc4ccccc4)c4cc(F)ccc43)C2)c(F)cc2c(=O)c(C(=O)O)cn(C3CC3)c12 (centres undefined) | 3.12 µg/mL (≈ 4.65 µM) |  |  | 6.25 µg/mL (≈ 9.32 µM) | < 6 µM | 
COc1c(N2CCCC(N(C)CCN3C(=O)/C(=N\NC(N)=O)c4ccccc43)C2)c(F)cc2c(=O)c(C(=O)O)cn(C3CC3)c12 (centres undefined) | 12.5 µg/mL (≈ 20.2 µM) |  |  | 12.5 µg/mL (≈ 20.2 µM) | 56.1 µM | 
COc1c(N2CCCC(N(C)CCN3C(=O)C(=O)c4cc(F)ccc43)C2)c(F)cc2c(=O)c(C(=O)O)cn(C3CC3)c12 (centres undefined) | 25 µg/mL (≈ 43.1 µM) | 64 µg/mL (≈ 110 µM) |  | 12.5 µg/mL (≈ 21.5 µM) | 96.2 µM | 
COc1c(N2CCCC(N(C)CCN3C(=O)/C(=N\NC(N)=S)c4ccccc43)C2)c(F)cc2c(=O)c(C(=O)O)cn(C3CC3)c12 (centres undefined) | 3.12 µg/mL (≈ 4.91 µM) |  |  | 6.25 µg/mL (≈ 9.83 µM) | 294 µM | 1.4
CNC1CCCN(c2c(F)cc3c(=O)c(C(=O)O)cn(C4CC4)c3c2OC)C1 (centres undefined) [BALOFLOXACIN] | 0.78 µg/mL (≈ 2 µM) | 16 µg/mL (≈ 41.1 µM) | 8 µg/mL (≈ 20.5 µM) | 0.39 µg/mL (≈ 1 µM) | 317 µM | -1.11
CCO/N=C1/C(=O)N(CCN(C)C2CCCN(c3c(F)cc4c(=O)c(C(=O)O)cn(C5CC5)c4c3OC)C2)c2ccc(F)cc21 (centres undefined) | 3.12 µg/mL (≈ 5 µM) |  |  | 6.25 µg/mL (≈ 10 µM) | 53.1 µM | 1.29
